The text below walks through data of patent US20230399312A1, “SUBSTITUTED PYRIMIDINES AND METHODS OF USE” (THERAVANCE BIOPHARMA R&D IP, LLC, priority 2020, published 2023).

The subject of test [1] is TGF-β-stimulated SMAD3 phosphorylation in BEAS-2B cells. Description: Cellular ALK5 potency assay, inhibition of TGF-β stimulated pSMAD3 formation in BEAS-2B cells. Conditions: Homo sapiens, pSMAD3, TGF-β 10 ng/mL, read-out: BEAS2B pIC50 (converted). The class given is cell-based. Put shortly: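 Human lung epithelial BEAS-2B cells were preincubated 1 h at 37 °C with compound in HBSS/HEPES/1% BSA, then stimulated 30 min with 10 ng/mL TGF-β. pSMAD3 in lysates was quantified by AlphaLISA relative to untreated stimulated cells; reported as pIC50.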

Test [2] addresses T1, recombinant human ALK5 (TGF-βR1) protein (Homo sapiens, UniProt P36897).
T1 construct: purchased Life Technologies PR9075A
T1 sequence (P36897 34-503): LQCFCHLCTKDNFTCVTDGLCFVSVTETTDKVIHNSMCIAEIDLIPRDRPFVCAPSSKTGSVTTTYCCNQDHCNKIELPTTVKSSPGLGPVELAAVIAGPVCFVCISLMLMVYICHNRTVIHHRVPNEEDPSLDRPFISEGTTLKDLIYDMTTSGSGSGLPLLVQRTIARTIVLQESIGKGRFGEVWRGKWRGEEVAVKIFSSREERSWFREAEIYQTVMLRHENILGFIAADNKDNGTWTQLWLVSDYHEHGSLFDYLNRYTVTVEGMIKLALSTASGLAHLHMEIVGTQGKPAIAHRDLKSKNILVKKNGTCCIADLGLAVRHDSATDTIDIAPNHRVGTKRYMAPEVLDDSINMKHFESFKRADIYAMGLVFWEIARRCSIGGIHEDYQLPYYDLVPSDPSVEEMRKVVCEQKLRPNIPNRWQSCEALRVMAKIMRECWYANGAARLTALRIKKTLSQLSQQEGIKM
Description: Biochemical ALK5 (TGF-βR1) assay to measure pKi (LANCE Ultra ULight kinase assay). Conditions: apparent pKi, converted from pIC50 by Cheng-Prusoff. Put shortly: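 Europium TR-FRET kinase assay: the enzyme is exposed to compound for 60 min at room temperature, and reaction with ATP runs 60 min at 37 °C. Percent inhibition relative to DMSO and SD-208 controls gives pIC50, which is converted to pKi.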
A general note: TR-FRET usually uses a lanthanide donor and a delayed reading to cut background.

As for `Cc1cccc(-c2nccc(Nc3ccnc(Nc4ccc(CN5CCN(C(C)(C)C)CC5)cc4)n3)n2)n1` [Compound 109, N2-[4-[(4-tert-butylpiperazin-1-yl)methyl]phenyl]-N4-[2-(6-methyl-2-pyridyl)pyrimidin-4-yl]pyrimidine-2,4-diamine], the IC50 in test [1] was 25.1 to 158 nM. Moreover, the Ki in test [2] is 0.0398 to 0.316 nM.
For `Cc1cccc(-c2nccc(Nc3ccnc(Nc4ccc(NC(=O)N5CCN(C(C)C)CC5)cc4)n3)n2)n1` [Compound 110, 4-isopropyl-N-[4-[[4-[[2-(6-methyl-2-pyridyl)pyrimidin-4-yl]amino]pyrimidin-2-yl]amino]phenyl]piperazine-1-carboxamide], in that order: 25.1 to 158 nM and 0.0398 to 0.316 nM.
In the case of `Cc1cccc(-c2nccc(Nc3ccnc(Nc4ccc(F)c(CN5CCNCC5)c4)n3)n2)n1` [Compound 111, N2-[4-fluoro-3-(piperazin-1-ylmethyl)phenyl]-N4-[2-(6-methyl-2-pyridyl)pyrimidin-4-yl]pyrimidine-2,4-diamine], the IC50 in test [1] was 25.1 to 158 nM. In test [2], the Ki was 0.0398 to 0.316 nM.
On to `Cc1cccc(-c2nccc(Nc3ccnc(Nc4ccc(CN5CCCC(C(=O)N6CCNCC6)C5)cc4)n3)n2)n1` (stereo not drawn) [Compound 112, [1-[[4-[[4-[[2-(6-methyl-2-pyridyl)pyrimidin-4-yl]amino]pyrimidin-2-yl]amino]phenyl]methyl]-3-piperidyl]-piperazin-1-yl-methanone], for which the IC50 in test [1] was 25.1 to 158 nM. Further, the Ki in test [2] is 0.0398 to 0.316 nM.
As for `CC[C@H](C)OC(=O)C1CN(c2ccc(Nc3nccc(Nc4ccnc(-c5cccc(C)n5)n4)n3)cc2)CCN1` (stereo partly drawn) [Compound 113, [(1S)-1-methylpropyl] 4-[4-[[4-[[2-(6-methyl-2-pyridyl)pyrimidin-4-yl]amino]pyrimidin-2-yl]amino]phenyl]piperazine-2-carboxylate], the IC50 in test [1] was 25.1 to 158 nM. Besides, in test [2], the Ki was 0.0398 to 0.316 nM.
The like results for `Cc1cccc(-c2nccc(Nc3ccnc(Nc4ccc(C5CCNCC5)cn4)n3)n2)n1` [Compound 114, N4-[2-(6-methyl-2-pyridyl)pyrimidin-4-yl]-N2-[5-(4-piperidyl)-2-pyridyl]pyrimidine-2,4-diamine] were, in that order, 200 to 1260 nM and 0.398 to 3.16 nM.
As to `Cc1cccc(-c2nccc(Nc3ccnc(Nc4ccc(C(=O)N5CCNCC5)s4)n3)n2)n1` [Compound 115, [5-[[4-[[2-(6-methyl-2-pyridyl)pyrimidin-4-yl]amino]pyrimidin-2-yl]amino]-2-thienyl]-piperazin-1-yl-methanone], the IC50 in test [1] is 25.1 to 158 nM. Moreover, in test [2], the Ki is 0.0398 to 0.316 nM.
For `Cc1cccc(-c2nccc(Nc3ccnc(Nc4ccc(N(C)[C@H]5CCNC5)cc4)n3)n2)n1` [Compound 116, N4-[2-(6-methyl-2-pyridyl)pyrimidin-4-yl]-N2-[4-[methyl-[(3S)-pyrrolidin-3-yl]amino]phenyl]pyrimidine-2,4-diamine], the IC50 in test [1] is 25.1 to 158 nM. In addition, the Ki in test [2] was 0.0398 to 0.316 nM.
The like results for `Cc1cccc(-c2nccc(Nc3ccnc(Nc4cccc(NCC5CNC5)c4)n3)n2)n1` [Compound 118, N2-[3-(azetidin-3-ylmethylamino)phenyl]-N4-[2-(6-methyl-2-pyridyl)pyrimidin-4-yl]pyrimidine-2,4-diamine] were, in that order, 25.1 to 158 nM and 0.0398 to 0.316 nM.
For `Cc1cccc(-c2nccc(Nc3ccnc(Nc4ccc(S(N)(=O)=O)cn4)n3)n2)n1` [Compound 119, 6-[[4-[[2-(6-methyl-2-pyridyl)pyrimidin-4-yl]amino]pyrimidin-2-yl]amino]pyridine-3-sulfonamide], in that order: 25.1 to 158 nM and 3.98 to 31.6 nM.
Regarding `Cc1cccc(-c2nccc(Nc3ccnc(Nc4ccc(N5CCNCC5)c(F)c4)n3)n2)n1` [Compound 120, N2-(3-fluoro-4-piperazin-1-yl-phenyl)-N4-[2-(6-methyl-2-pyridyl)pyrimidin-4-yl]pyrimidine-2,4-diamine], the IC50 in test [1] was 25.1 to 158 nM. Also, the Ki in test [2] is 0.0398 to 0.316 nM.
Regarding `Cc1cccc(-c2nccc(Nc3ccnc(Nc4ccc(N5CCNCC5)cn4)n3)n2)n1` [Compound 121, N4-(2-(6-methylpyridin-2-yl)pyrimidin-4-yl)-N2-(5-(piperazin-1-yl)pyridin-2-yl)pyrimidine-2,4-diamine], the IC50 in test [1] was 25.1 to 158 nM. Moreover, the Ki in test [2] was 0.398 to 3.16 nM.
For `Cc1cccc(-c2nccc(Nc3ccnc(Nc4ccc(S(=O)(=O)N(C)C5CCNCC5)cc4)n3)n2)n1` [Compound 122, N-methyl-4-[[4-[[2-(6-methyl-2-pyridyl)pyrimidin-4-yl]amino]pyrimidin-2-yl]amino]-N-(4-piperidyl)benzenesulfonamide], in that order: 25.1 to 158 nM and 0.0398 to 0.316 nM.
As for `Cc1cccc(-c2nccc(Nc3ccnc(Nc4ccc(N5CCC(N6CCCC6)CC5)cc4)n3)n2)n1` [Compound 123, N4-[2-(6-methyl-2-pyridyl)pyrimidin-4-yl]-N2-[4-(4-pyrrolidin-1-yl-1-piperidyl)phenyl]pyrimidine-2,4-diamine], the IC50 in test [1] was 25.1 to 158 nM. The Ki in test [2] was ≤ 0.0316 nM.
The like results for `Cc1cccc(-c2nccc(Nc3ccnc(Nc4ccc(CN5CCC(C(=O)O)C5)cc4)n3)n2)n1` (stereo not drawn) [Compound 124, 1-[[4-[[4-[[2-(6-methyl-2-pyridyl)pyrimidin-4-yl]amino]pyrimidin-2-yl]amino]phenyl]methyl] pyrrolidine-3-carboxylic acid] were, in that order, 25.1 to 158 nM and 0.0398 to 0.316 nM.
Turning to `Cc1cccc(-c2nccc(Nc3ccnc(Nc4cccc(NC(=O)NC5CNC5)c4)n3)n2)n1` [Compound 125, 1-(azetidin-3-yl)-3-[3-[[4-[[2-(6-methyl-2-pyridyl)pyrimidin-4-yl]amino]pyrimidin-2-yl]amino]phenyl]urea], the IC50 in test [1] is 25.1 to 158 nM. Besides, in test [2], the Ki was 0.0398 to 0.316 nM.
With `Cc1cccc(-c2nccc(Nc3ccnc(Nc4ccc(Cl)c(N)c4)n3)n2)n1` [Compound 126, N2-(3-amino-4-chloro-phenyl)-N4-[2-(6-methyl-2-pyridyl)pyrimidin-4-yl]pyrimidine-2,4-diamine], in test [1], the IC50 was ≤ 20 nM. Also, in test [2], the Ki is 0.398 to 3.16 nM.
For `COC1CN(Cc2ccc(Nc3nccc(Nc4ccnc(-c5cccc(C)n5)n4)n3)cc2)C1` [Compound 127, N2-[4-[(3-methoxyazetidin-1-yl)methyl]phenyl]-N4-[2-(6-methyl-2-pyridyl)pyrimidin-4-yl]pyrimidine-2,4-diamine], in that order: 25.1 to 158 nM and 0.0398 to 0.316 nM.
As for `Cc1cccc(-c2nccc(Nc3ccnc(Nc4ccc(C)c(NC(=O)C5CCNCC5)c4)n3)n2)n1` [Compound 128, N-[2-methyl-5-[[4-[[2-(6-methyl-2-pyridyl)pyrimidin-4-yl]amino]pyrimidin-2-yl]amino]phenyl]piperidine-4-carboxamide], in test [1], the IC50 is ≤ 20 nM. Moreover, in test [2], the Ki was 0.0398 to 0.316 nM.
Take `Cc1cccc(-c2nccc(Nc3ccnc(Nc4ccc(CN5CCN6CCCC6C5)cc4)n3)n2)n1` (stereo not drawn) [Compound 129, N2-[4-(3,4,6,7,8,8a-hexahydro-1H-pyrrolo[1,2-a]pyrazin-2-ylmethyl)phenyl]-N4-[2-(6-methyl-2-pyridyl)pyrimidin-4-yl]pyrimidine-2,4-diamine]: the IC50 in test [1] was 25.1 to 158 nM. Also, in test [2], the Ki is 0.0398 to 0.316 nM.
On to `Cc1cccc(-c2nccc(Nc3ccnc(Nc4ccc(F)c(CN5C[C@@H](C)N[C@@H](C)C5)c4)n3)n2)n1` [Compound 130, N2-[4-fluoro-3-[[rac-(3R,5S)-3,5-dimethylpiperazin-1-yl]methyl]phenyl]-N4-[2-(6-methyl-2-pyridyl)pyrimidin-4-yl]pyrimidine-2,4-diamine], for which, in test [1], the IC50 was 25.1 to 158 nM. The Ki in test [2] is 0.0398 to 0.316 nM.
On to `Cc1cccc(-c2nccc(Nc3ccnc(Nc4ccc(CN5CC(O)C5)cc4)n3)n2)n1` [Compound 131, 1-[[4-[[4-[[2-(6-methyl-2-pyridyl)pyrimidin-4-yl]amino]pyrimidin-2-yl]amino]phenyl]methyl] azetidin-3-ol], for which the IC50 in test [1] was 25.1 to 158 nM. Besides, in test [2], the Ki is 0.0398 to 0.316 nM.
`Cc1cccc(-c2nccc(Nc3ccnc(Nc4ccc(CN5CCNC[C@@H]5CO)cc4)n3)n2)n1` [Compound 132, [(2R)-1-[[4-[[4-[[2-(6-methyl-2-pyridyl)pyrimidin-4-yl]amino]pyrimidin-2-yl]amino]phenyl]methyl]piperazin-2-yl]methanol]: the IC50 in test [1] is 25.1 to 158 nM. Besides, in test [2], the Ki is 0.0398 to 0.316 nM.
For `Cc1cccc(-c2nccc(Nc3ccnc(Nc4ccc(C5CCNCC5)cc4)n3)n2)n1` [Compound 133, N4-[2-(6-methyl-2-pyridyl)pyrimidin-4-yl]-N2-[4-(4-piperidyl)phenyl]pyrimidine-2,4-diamine], in that order: 25.1 to 158 nM and 0.0398 to 0.316 nM.
